Laboratory results from PubChem BioAssay AID2060347 (Molecular Pharmacology Branch, DTP, NCI, 2025).

Test system: 817829-284-R-J1-PDC spheroids with HUVEC/MSC, viability
Assay: Anticancer human tumor 817829-284-R-J1-PDC patient-derived colon adenocarcinoma cell line growth inhibition [TAK]
Settings: for IC50: curve of first compound; for viability, T/C: stronger effect = lower value
Source text: Combinatorial screen of targeted agents with TAK-243 and ipatasertib in multi-cell type tumor spheroids
A high-throughput screen of multi-cell type tumor spheroids was designed to identify active combinations of targeted small molecules and TAK-243 or ipatasertib. Complex spheroids include a stromal component modeled by human endothelial cells (HUVEC) and fibroblasts modeled by human mesenchymal stem cells (MSCs). The concentration ranges selected for each drug and investigational agent were based upon clinically achievable concentrations if the clinical Cmax of the agent was known.
Compounds. The drugs and investigational agents: TAK-243 (785004), ipatasertib (767898), everolimus (733504), selumetinib (741078), bortezomib (756655), trametinib (758246), ixazomib (758254), vemurafenib (761431), dabrafenib (764134), sapanisertib (764658), alpelisib (765974), and copanlisib (816437), were obtained from the National Cancer Institute (NCI) Developmental Therapeutics Program Chemical Repository. The FDA-approved anticancer drug set is available from the NCI Developmental Therapeutics Program. […] The stock solutions were prepared in dimethyl sulfoxide (DMSO, Sigma-Aldrich, St. Louis, MO, cat. D2650) at 800-fold the tested concentration and stored at -70 degrees C prior to their use. All drugs and investigational agents were tested over a range starting from a high concentration at or near the clinical Cmax and decreasing in half-log increments. If the clinical Cmax for an agent had not been determined, the highest concentration tested was 10 microM.
NCI60 Cell Culture. NCI60 cell lines were obtained from the NCI Developmental Therapeutics Program Tumor Repository. For each lot of cells, the Repository performed Applied Biosystems AmpFLSTR Identifiler testing with PCR amplification to confirm consistency with the published Identifier STR profile for each cell line. Cells were kept in continuous culture for no more than 20 passages. The optimal seeding densities for each of the cell lines at each time point assessed were determined prior to performing the concentration response studies. Briefly, the NCI60 human tumor lines were grown as monolayers in RPMI 1640 medium supplemented with 10% FBS and 2 mmol/L L-glutamine.
An additional 2 lines were from the NCI60 cell line panel including melanomas, MALME-3M and SK-MEL-2. Pooled donor human umbilical vein endothelial cells (HUVEC, Lonza, cat. CC-2519) and human mesenchymal stem cells (hMSC, Lonza, cat. PT-2501) were purchased from Lonza (Walkersville, MD).
PDMR cell lines were grown in complete medium (DC medium): Dulbecco's modified Eagle's medium (DMEM)/F12 supplemented with 5% fetal bovine serum (FBS), 2 mM L-glutamine, 100 U/mL penicillin and 100 µg/ml streptomycin, 0.4 µg/ml hydrocortisone, 10 ng/ml epidermal growth factor (EGF) recombinant human protein, 24 µg/mL adenine, and 0.1 mg/mL primocin. During culture from frozen stock vials, PDMR cells were cultured in the same medium containing 10 µM Y-27632 (see Table 3). The PDCs were cultured in complete DMEM/F12 media without 10 microM Y-27632 dihydrochloride for at least two passages prior to the screen. The pooled donor HUVEC and hMSC were cultured in endothelial cell growth medium 2 (PromoCell, Heidelberg, Germany, cat. C-22011) and mesenchymal stem cell growth medium 2 (PromoCell, cat. C-28009), respectively. For all experiments, HUVEC and hMSC were used at passages </=5.
For the pre-screen, cell seeding densities were determined from a titration spanning the range from 5,000 to 313 cells per well. The mct-spheroids including 60% malignant cells, 25% HUVEC and 15% MSC dispensed as a mixture into U-bottom Ultra-Low Attachment 384-well plates (Corning, NY)
High-throughput Drug Combination Screening.
Prior to their inoculation into 384-well plates, malignant cells, HUVEC, and hMSC were removed from T flasks using TrypLE express (Thermo Fisher Scientific, cat. 12605036) and harvested by centrifugation for 5 min at 233 x g. […]

Compound: CC(=O)Nc1cccc(-n2c(=O)n(C3CC3)c(=O)c3c(Nc4ccc(I)cc4F)n(C)c(=O)c(C)c32)c1 + CC(C)NCC(C(=O)N1CCN(c2ncnc3c2C(C)CC3O)CC1)c1ccc(Cl)cc1
- IC50 (second compound 0.3 µM): 0.154 nM
- IC50 (second compound 0.949 µM): < 0.0949 nM
- IC50 (second compound 3 µM): < 0.0949 nM
- IC50 (second compound 9.49 µM): < 0.0949 nM
- IC50 (second compound 30 µM): < 0.0949 nM
- viability, T/C (second compound 0.3 µM, first compound 94.9 pM): 60%
- viability, T/C (second compound 0.3 µM, first compound 0.0003 µM): 36.2%
- viability, T/C (second compound 0.3 µM, first compound 0.000949 µM): 22.1%
- viability, T/C (second compound 0.3 µM, first compound 0.003 µM): 24.3%
- viability, T/C (second compound 0.3 µM, first compound 0.00949 µM): 11.9%
- viability, T/C (second compound 0.3 µM, first compound 0.03 µM): 7.59%
- viability, T/C (second compound 0.949 µM, first compound 94.9 pM): 19.3%
- viability, T/C (second compound 0.949 µM, first compound 0.0003 µM): 19.1%
- viability, T/C (second compound 0.949 µM, first compound 0.000949 µM): 13.8%
- viability, T/C (second compound 0.949 µM, first compound 0.003 µM): 12.8%
- viability, T/C (second compound 0.949 µM, first compound 0.00949 µM): 11.4%
- viability, T/C (second compound 0.949 µM, first compound 0.03 µM): 10.6%
- viability, T/C (second compound 3 µM, first compound 94.9 pM): 9.84%
- viability, T/C (second compound 3 µM, first compound 0.0003 µM): 8.37%
- viability, T/C (second compound 3 µM, first compound 0.000949 µM): 8.93%
- viability, T/C (second compound 3 µM, first compound 0.003 µM): 8.79%
- viability, T/C (second compound 3 µM, first compound 0.00949 µM): 7.98%
- viability, T/C (second compound 3 µM, first compound 0.03 µM): 7.61%
- viability, T/C (second compound 9.49 µM, first compound 94.9 pM): 6.42%
- viability, T/C (second compound 9.49 µM, first compound 0.0003 µM): 5.85%
- viability, T/C (second compound 9.49 µM, first compound 0.000949 µM): 5.02%
- viability, T/C (second compound 9.49 µM, first compound 0.003 µM): 5.15%
- viability, T/C (second compound 9.49 µM, first compound 0.00949 µM): 5.13%
- viability, T/C (second compound 9.49 µM, first compound 0.03 µM): 4.15%
- viability, T/C (second compound 30 µM, first compound 94.9 pM): 4.66%
- viability, T/C (second compound 30 µM, first compound 0.0003 µM): 4.56%
- viability, T/C (second compound 30 µM, first compound 0.000949 µM): 3.15%
- viability, T/C (second compound 30 µM, first compound 0.003 µM): 3.45%
- viability, T/C (second compound 30 µM, first compound 0.00949 µM): 2.76%
- viability, T/C (second compound 30 µM, first compound 0.03 µM): 2.65%

Compound: CC(C)CC(NC(=O)CNC(=O)c1cc(Cl)ccc1Cl)B1OC(=O)CC(CC(=O)O)(C(=O)O)O1 (stereo not given) + CC(C)NCC(C(=O)N1CCN(c2ncnc3c2C(C)CC3O)CC1)c1ccc(Cl)cc1
- IC50 (second compound 0.3 µM): 15.9 nM
- IC50 (second compound 0.949 µM): < 0.316 nM
- IC50 (second compound 3 µM): < 0.316 nM
- IC50 (second compound 9.49 µM): < 0.316 nM
- IC50 (second compound 30 µM): < 0.316 nM
- viability, T/C (second compound 0.3 µM, first compound 0.000316 µM): 103%
- viability, T/C (second compound 0.3 µM, first compound 0.001 µM): 93.4%
- viability, T/C (second compound 0.3 µM, first compound 0.00316 µM): 82.4%
- viability, T/C (second compound 0.3 µM, first compound 0.01 µM): 81%
- viability, T/C (second compound 0.3 µM, first compound 0.0316 µM): 4.01%
- viability, T/C (second compound 0.3 µM, first compound 0.1 µM): 0.25%
- viability, T/C (second compound 0.949 µM, first compound 0.000316 µM): 33.5%
- viability, T/C (second compound 0.949 µM, first compound 0.001 µM): 22.1%
- viability, T/C (second compound 0.949 µM, first compound 0.00316 µM): 30.2%
- viability, T/C (second compound 0.949 µM, first compound 0.01 µM): 25%
- viability, T/C (second compound 0.949 µM, first compound 0.0316 µM): 0.36%
- viability, T/C (second compound 0.949 µM, first compound 0.1 µM): 0.13%
- viability, T/C (second compound 3 µM, first compound 0.000316 µM): 10.5%
- viability, T/C (second compound 3 µM, first compound 0.001 µM): 10%
- viability, T/C (second compound 3 µM, first compound 0.00316 µM): 10.2%
- viability, T/C (second compound 3 µM, first compound 0.01 µM): 10.8%
- viability, T/C (second compound 3 µM, first compound 0.0316 µM): 0.42%
- viability, T/C (second compound 3 µM, first compound 0.1 µM): 0.12%
- viability, T/C (second compound 9.49 µM, first compound 0.000316 µM): 5.98%
- viability, T/C (second compound 9.49 µM, first compound 0.001 µM): 6.67%
- viability, T/C (second compound 9.49 µM, first compound 0.00316 µM): 6.96%
- viability, T/C (second compound 9.49 µM, first compound 0.01 µM): 6.39%
- viability, T/C (second compound 9.49 µM, first compound 0.0316 µM): 0.53%
- viability, T/C (second compound 9.49 µM, first compound 0.1 µM): 0.12%
- viability, T/C (second compound 30 µM, first compound 0.000316 µM): 5.15%
- viability, T/C (second compound 30 µM, first compound 0.001 µM): 4.38%
- viability, T/C (second compound 30 µM, first compound 0.00316 µM): 4.75%
- viability, T/C (second compound 30 µM, first compound 0.01 µM): 4.63%
- viability, T/C (second compound 30 µM, first compound 0.0316 µM): 0.23%
- viability, T/C (second compound 30 µM, first compound 0.1 µM): 0.32%
